Data: ChEMBL document CHEMBL3853272, “Polymerase Acidic Protein-Basic Protein 1 (PA-PB1) Protein-Protein Interaction as a Target for Next-Generation Anti-influenza Therapeutics” (J Med Chem, 2016)

Assays:
[1] = Inhibition of Influenza B virus HA-tagged PA/PB1 interaction in HEK293T cells assessed as inhibition of viral growth by competitive ELISA; type: cell-based; settings: hek-293t
[2] = target: Polymerase acidic protein /RNA-directed RNA polymerase catalytic subunit (Influenza A virus (strain A/Wilson-Smith/1933 H1N1), UniProt P03430+P15659); assay: Inhibition of Influenza A virus A/WSN/1933(H1N1) HA-tagged PA/PB1 interaction in HEK293T cells assessed as inhibition of viral growth by competitive ELISA; type: cell-based, HEK-293T
[3] = (§1) Inhibition of Influenza A virus A/PR/8/34(H1N1) 6His-tagged PA (239 to 716 residues)/GST-tagged PB1 (1 to 15 residues) fused with HIV-Tat interaction by ELISA; design: species or system Influenza A virus (A/Puerto Rico/8/1934(H1N1))
[4] = system: Influenza A virus (A/Puerto Rico/8/1934(H1N1)); assay: as §1
[5] = Cytotoxicity against MDCK cells measured after 24 to 120 hrs by MTT assay; type: toxicity, cell-based, Canis lupus familiaris; settings: dog
HEK-293T = assay: (§2) Inhibition of Influenza A virus A/PR/8/34 RNA-dependent-RNA polymerase transfected in HEK293T cells assessed as reduction in viral growth after 24 hrs by minireplicon assay; type: cell-based; settings: Influenza A virus (A/Puerto Rico/8/1934(H1N1))
[6] = as §2; type: cell-based, Influenza A virus (A/Puerto Rico/8/1934(H1N1)); settings: hek-293t
[7] = Antiviral activity against Influenza A virus A/PR/8/34 (H1N1) infected in MDCK cells assessed as reduction in plaque formation after 2 days by plaque reduction assay; type: functional, cell-based, Influenza A virus (A/Puerto Rico/8/1934(H1N1)); settings: 48 h
[8] = Cytotoxicity against MDCK cells by MTT assay; type: toxicity, cell-based, Canis lupus familiaris; settings: dog
[9] = target: Polymerase acidic protein (Influenza A virus (A/Puerto Rico/8/1934(H1N1)), UniProt P03433); assay: Binding affinity to PA cavity of recombinant Influenza A virus A/PR/8/34(H1N1) PA (239 to 716 residues) measured after 2 mins by SPR analysis
[10] = Inhibition of Influenza A virus A/PR/8/34(H1N1) 6His-tagged PA (239 to 716 residues)/GST-tagged PB1 (1 to 15 residues) interaction; design: species or system Influenza A virus (A/Puerto Rico/8/1934(H1N1))
[11] = Inhibition of Influenza A virus A/WSN/1933(H1N1) PA/PB1 interaction transfected in HEK293T cells assessed as inhibition of viral growth measured after 24 hrs by minireplicon assay; type: cell-based; settings: hek-293t
[12] = Inhibition of Influenza B virus B/Lee/40 RNA-dependent-RNA polymerase transfected in MDCK cells assessed as reduction in viral growth after 24 hrs by minireplicon assay; type: cell-based, Influenza B virus (B/Lee/1940)
Influenza A virus = assay: Antiviral activity at Influenza A virus infected in MDCK cells by plaque reduction assay; type: functional, cell-based
[13] = Inhibition of Influenza A virus A/PR/8/34(H1N1) RNA-dependent-RNA polymerase transfected in MDCK cells assessed as reduction in viral growth after 24 hrs by minireplicon assay; type: cell-based, Influenza A virus (A/Puerto Rico/8/1934(H1N1))
Influenza B virus = assay: Antiviral activity at Influenza B virus infected in MDCK cells by plaque reduction assay; type: functional, cell-based

Q: With H-MDVNPYLLFLKVPAQ-OH as the molecule, how does the IC50 [1] read?
A: 0.107 µM

Q: And the IC50 [2]?
A: 0.0216 µM

Q: For `CSCC[C@H](N)C(=O)N[C@@H](CC(=O)O)C(=O)N[C@H](C(=O)N[C@@H](CC(N)=O)C(=O)N1CCC[C@H]1C(=O)N[C@@H](Cc1ccccc1)C(=O)N[C@@H](CC(C)C)C(=O)N[C@@H](CC(C)C)C(=O)N[C@@H](Cc1ccccc1)C(=O)N[C@@H](CC(C)C)C(=O)N[C@@H](CCCCN)C(=O)N[C@H](C(=O)N[C@@H](CCCCN)C(=O)N[C@@H](C)C(=O)N[C@@H](CCC(N)=O)C(=O)O)C(C)C)C(C)C`, which IC50 [2] is on record?
A: 0.0166 µM

Q: For `CC(C)C[C@H](NC(=O)[C@H](Cc1ccccc1)NC(=O)[C@H](CC(C)C)NC(=O)[C@H](CC(C)C)NC(=O)[C@@H](NC(=O)[C@@H]1CCCN1)[C@@H](C)O)C(=O)N[C@@H](CCCCN)C(=O)O`, which IC50 [2] is on record?
A: > 10 µM

Q: Which IC50 [3] does the source give for `COc1ccc(CC2(CCC(=O)NC(C)Cn3ccc4ccccc43)CCC(=O)N2)cc1` (centres undefined) here?
A: 200 µM

Q: What about the inhibition [4] of the same molecule?
A: Dose-dependent effect

Q: And the CC50 [5]?
A: > 250 µM

Q: And the inhibition (HEK-293T)?
A: Dose-dependent effect

Q: What about the IC50 [6] of the same molecule?
A: > 100 µM

Q: And the EC50 [7]?
A: > 100 µM

Q: Which results are given for `O=[N+]([O-])c1ccc(Sc2cccc(-n3ccnc3)c2)c2nonc12`?
A: IC50 [3]: 15 µM; CC50 [8]: 20 µM; EC50 [7]: 10 µM

Q: For `CC(=O)O[C@H]1CC[C@H]2[C@@H]3CCC4=CC(=O)CCC4=C3C=C[C@]12C` [TRENBOLONE ACETATE], which Kd [9] is on record?
A: 90.7 µM

Q: What about the EC50 [7] of the same molecule?
A: 51 µM

Q: For `CCc1oc2ccccc2c1C(=O)c1cc(Br)c(O)c(Br)c1` [BENZBROMARONE], which Kd [9] is on record?
A: 48.2 µM

Q: And the EC50 [7]?
A: 39 µM

Q: With H-MNINPYFLFIDVPIQ-OH as the molecule, how does the IC50 [1] read?
A: 0.045 µM

Q: What about the IC50 [2] of the same molecule?
A: > 3 µM

Q: What does the source list for `Nc1ccc(O)c2c1C(=O)c1c(N)ccc(O)c1C2=O`?
A: IC50 [10]: 20 µM; IC50 [11]: 16 µM; EC50 [12]: 8.3 µM; CC50 [5]: > 250 µM; EC50 (Influenza A virus): 13 µM; EC50 [13]: 14 µM

Q: For `NC(=O)c1c(NC(=O)c2cnn3c(C(F)F)cc(-c4ccccc4)nc23)sc2c1CCC2`, which IC50 [3] is on record?
A: 25.4 µM

Q: And the inhibition [4]?
A: Dose-dependent effect

Q: And the CC50 [5]?
A: > 1000 µM

Q: What about the inhibition (HEK-293T) of the same molecule?
A: Dose-dependent effect

Q: What about the IC50 [6] of the same molecule?
A: 31 µM

Q: What about the EC50 [7] of the same molecule?
A: 75 µM

Q: Which results are given for `N#CC(c1ccc(Cl)cc1)c1c(Cl)cc(-n2ncc(=O)[nH]c2=O)cc1Cl` (centres undefined) [DICLAZURIL]?
A: Kd [9]: 211 µM; EC50 [7]: 31 µM

Q: With `COc1ccc(C(=O)Nc2nc3n(n2)C(c2ccccc2)C=C(C)N3)cc1` (centres undefined) as the molecule, how does the IC50 [3] read?
A: 171 µM

Q: What about the inhibition [4] of the same molecule?
A: Dose-dependent effect

Q: What about the CC50 [5] of the same molecule?
A: > 250 µM

Q: What about the inhibition (HEK-293T) of the same molecule?
A: Dose-dependent effect

Q: What about the IC50 [6] of the same molecule?
A: > 100 µM

Q: And the EC50 [7]?
A: > 100 µM

Q: For `O=[N+]([O-])c1ccc(Oc2ccc(-n3cc(CO)nn3)cc2)c2nonc12`, which IC50 [3] is on record?
A: 35 µM

Q: What about the CC50 [8] of the same molecule?
A: 40 µM

Q: What about the EC50 [7] of the same molecule?
A: 1 µM

Q: With `CSCC[C@H](N)C(=O)N[C@@H](CC(=O)O)C(=O)N[C@H](C(=O)N[C@@H](CC(N)=O)C(=O)N1CCC[C@H]1C(=O)N[C@H](C(=O)N[C@@H](CC(C)C)C(=O)N[C@@H](CC(C)C)C(=O)N[C@@H](Cc1ccccc1)C(=O)N[C@@H](CC(C)C)C(=O)N[C@@H](CCCCN)C(=O)N[C@H](C(=O)N1CCC[C@H]1C(=O)N[C@@H](C)C(=O)N[C@@H](CCC(N)=O)C(=O)O)C(C)C)[C@@H](C)O)C(C)C` as the molecule, how does the IC50 [1] read?
A: > 3 µM

Q: For `CC[C@H](C)[C@H](NC(=O)[C@@H]1CCCN1C(=O)[C@@H](NC(=O)[C@H](CCCCN)NC(=O)[C@H](CC(C)C)NC(=O)[C@H](Cc1ccccc1)NC(=O)[C@H](CC(C)C)NC(=O)[C@H](CC(C)C)NC(=O)[C@H](Cc1ccccc1)NC(=O)[C@@H]1CCCN1C(=O)[C@H](CC(N)=O)NC(=O)[C@@H](NC(=O)[C@H](CC(=O)O)NC(=O)[C@@H](N)CCSC)C(C)C)C(C)C)C(=O)N[C@@H](CCC(N)=O)C(=O)O`, which IC50 [2] is on record?
A: 0.0217 µM

Q: For `CSCC[C@H](N)C(=O)N[C@@H](CC(=O)O)C(=O)N[C@@H](Cc1ccc(O)cc1)C(=O)N[C@@H](CC(N)=O)C(=O)N1CCC[C@H]1C(=O)N[C@@H](Cc1ccccc1)C(=O)N[C@@H](CC(C)C)C(=O)N[C@@H](CC(C)C)C(=O)N[C@@H](Cc1ccccc1)C(=O)N[C@@H](CC(C)C)C(=O)N[C@@H](CCCCN)C(=O)N[C@H](C(=O)N1CCC[C@H]1C(=O)N[C@@H](C)C(=O)N[C@@H](CCC(N)=O)C(=O)O)C(C)C`, which IC50 [2] is on record?
A: 0.0063 µM

Q: Which IC50 [2] does the source give for `CSCC[C@H](N)C(=O)N[C@@H](CC(=O)O)C(=O)N[C@H](C(=O)N[C@@H](CC(N)=O)C(=O)N1CCC[C@H]1C(=O)N[C@@H](Cc1ccccc1)C(=O)N[C@@H](CC(C)C)C(=O)N[C@@H](CC(C)C)C(=O)N[C@@H](Cc1ccccc1)C(=O)N[C@@H](CC(C)C)C(=O)N[C@@H](CCCCN)C(=O)N[C@H](C(=O)N1CCC[C@H]1C(=O)N[C@@H](C)C(=O)N[C@@H](Cc1ccccc1)C(=O)O)C(C)C)C(C)C` here?
A: 0.0139 µM

Q: Which results are given for `COC(=O)C1=C(N)N(c2cccc(Cl)c2C)C2=C(C(=O)CCC2)C1c1ccc2c(c1)OCO2` (centres undefined)?
A: IC50 [3]: 30.4 µM; inhibition [4]: Dose-dependent effect; CC50 [5]: > 1000 µM; EC50 (Influenza A virus): 12 µM; EC50 (Influenza B virus): 12 µM; inhibition (HEK-293T): Dose-dependent effect; IC50 [6]: 18 µM; EC50 [7]: 18.6 µM
